Results reported in patent publication US9779901B2, “High temperature material compositions for high temperature thermal cutoff devices” (Therm-O-Disc, Incorporated, priority 2008, dated 2017).
Read-outs that look alike come from different tables or passages of the source.

What was measured:
[1] = estimated melting point temperature ranges of candidate organic compounds (Table 2); some compounds have several values, partly in parentheses, because analytic techniques differ; cited from earlier work

Structure (SMILES) | Melting Point | Melting Point [1]
O=C(C=Cc1ccccc1)NCCCCNC(=O)C=Cc1ccccc1 [Example 74] | 249 to 253 °C | 249-253° ° C.
NC(=O)c1c2c(nc3ccccc13)CCCC2 [Example 191] | 265 to 267 °C | 265-267° ° C.
O=c1cc2oc3ccccc3oc-2cc1=O [Example 138] | 260 to 261 °C | 260-261° ° C.
Nc1ccc2ccccc2c1-c1c(N)ccc2ccccc12 [Example 25] | 242.5 to 243 °C | 242.5-243° ° C.
O=c1c(=C2Cc3cccc4cccc2c34)c2cccc3cccc1c32 [Example 137] | 259 to 260 °C | 259-260° ° C.
COc1ncnc2nc[nH]c12 [Example 161] | 262 to 263 °C | 262-263° ° C.
CCN(CCCCN)c1ccc2c(=O)[nH][nH]c(=O)c2c1 [Example 136] | 259 to 260 °C | 259-260° ° C.
C(#Cc1c2ccccc2c(C#Cc2ccccc2)c2ccccc12)c1ccccc1 [Example 88] | 251 to 253 °C | 251-253° ° C.
Oc1cc2ccccc2c2cc3ccc4ccccc4c3cc12 [Example 130] | 258 to 259 °C | 258-259° ° C.
Cc1cc2[nH]c3ccccc3c2cc1C [Example 87] | 251 to 253 °C | 251-253° ° C.
Cc1nc2c(C)c(C)c(C)c(C)c2[nH]1 [Example 209] | 265 °C | 265° ° C.
CC(=O)Nc1cc2ccccc2c2ccc3ccccc3c12 [Example 83] | 250 to 251 °C | 250-251° ° C.
Cc1cc(=O)oc2cccc(O)c12 [Example 169] | 263 °C | 263° ° C.
O=[N+]([O-])c1c2ccccc2c([N+](=O)[O-])c2ccccc12 [Example 171] | 263 °C | 263° ° C.
O=c1c2ccccc2oc2nc3ccccc3nc12 [Example 155] | 261 °C | 261° ° C.
NNc1nnc(Cc2ccncc2)c2ccccc12 [Example 149] | 261 to 264 °C | 261-264° ° C.
CN1Cc2cc(C3=NNC(=O)CC3)ccc2NC1=O [Example 79] | 250 °C | 250° ° C.
c1cc2c3c(cccc3c1)-c1nc3ccccc3nc1-2 [Example 10] | 241 °C | 241° ° C.
N#Cc1ccc(Nc2ccc(C#N)cc2)cc1 [Example 194] | 265 to 266 °C | 265-266° ° C.
O=c1ccc2c(cc3ccc4cccc5ccc2c3c45)c1=O [Example 139] | 260 °C | 260° ° C.
COc1ccccc1[C@H](C)C(=O)N1C[C@@H]2[C@H](C1)C(c1ccccc1)(c1ccccc1)CC[C@@]2(O)c1ccccc1OC [Example 34] | 244 °C | 244° ° C.
O=[N+]([O-])c1nc2ccccc2[nH]1 [Example 127] | 258 °C | 258° ° C.
CCCCCCCCn1cnc2c(=S)nc[nH]c21 [Example 188] | 264 to 266 °C | 264-266° ° C.
COc1cc(CCN(C)C)ccc1O [Example 129] | 258 to 260 °C | 258-260° ° C.

Structure (SMILES) | Melting Point | Melting Point [1]
CC1=C(/C=C/C(C)=C/C=C/C(C)=C/C=C/C=C(C)/C=C/C=C(C)/C=C/C2=C(C)C(=O)C(=O)C2(C)C)C(C)(C)C(=O)C1=O [Example 26] | 243 °C | 243° ° C.
c1ccc(-c2ccnc(-c3cc(-c4ccccc4)cc(-c4cc(-c5ccccc5)ccn4)n3)c2)cc1 [Example 122] | 257 to 258 °C | 257-258° ° C.
Nc1nnc2ccccn12 [Example 48] | 245 to 247 °C | 245-247° ° C.
O=[N+]([O-])c1ccc(NN=Cc2ccccc2Cl)cc1 [Example 73] | 249 °C | 249° ° C.
c1ccc2c(c1)[nH]c1ccc3ccncc3c12 [Example 132] | 259 to 260 °C | 259-260° ° C.
O=c1[nH][nH]c2ccccc12 [Example 44] | 245 to 247 °C | 245-247° ° C.
O=C1CCc2c1[nH]c1ccccc21 [Example 95] | 252 to 252.5 °C | 252-252.5° ° C.
Nc1nc2c([N+](=O)[O-])cccc2s1 [Example 105] | 254 °C | 254° ° C.
Cn1cnc2ncn(C)c2c1=O [Example 41] | 245 to 246 °C | 245-246° ° C.
Oc1c2ccc3ccccc3c2cc2ccc3ccccc3c12 [Example 101] | 254 to 256 °C | 254-256° ° C.
Oc1ccc(-c2cnc(-c3cccnc3)o2)cc1 [Example 115] | 255 to 256 °C | 255-256° ° C.
O=c1ccc2ncc[nH]c-2c1 [Example 90] | 252 to 254 °C | 252-254° ° C.
Cc1nc2ccccc2c2ccc([N+](=O)[O-])cc12 [Example 23] | 243 to 245 °C | 243-245° ° C.
Cc1c(C)c(CO)c(C)c(C)c1CO [Example 51] | 246 to 248 °C | 246-248° ° C.
O=c1[nH]c(=S)oc2ccccc12 [Example 98] | 253 °C | 253° ° C.
c1cc2n[nH]nc2cn1 [Example 50] | 246 to 247 °C | 246-247° ° C.
Cn1c(=O)c2ccn(C)c2n(C)c1=O [Example 192] | 265 to 266 °C | 265-266° ° C.
Nc1nnc(N)n1N [Example 158] | 262 to 263 °C | 262-263° ° C.
CN1CC2CC(NC(=O)c3n[nH]c4ccccc34)CC(C1)N2C (centres unmarked) [Example 118] | 256 to 257 °C | 256-257° ° C.
O=C1c2ccccc2-c2oc(=O)c3ccccc3c21 [Example 156] | 261 to 262 °C | 261-262° ° C.
Nc1ccc2c(c1)[nH]c1ccccc12 [Example 47] | 245 to 247 °C | 245-247° ° C.
CC(C)(C)C1=CC(=C2C=C(C(C)(C)C)C(=O)C(C(C)(C)C)=C2)C=C(C(C)(C)C)C1=O [Example 22] | 243 to 245 °C | 243-245° ° C.
N#Cc1ccc2c(=O)c3ccccc3sc2c1 [Example 110] | 255 to 256 °C | 255-256° ° C.
C#C/C=C/C1C(O)CCCC12CCCC(CCCC#C)N2 (centres unmarked) [Example 60] | 247 to 250 °C | 247-250° ° C.

Structure (SMILES) | Melting Point | Melting Point [1]
NC(=O)C(CC(C(N)=O)C(N)=O)C(N)=O [Example 168] | 263 to 265 °C | 263-265° ° C.
c1ccc2nc3nccnc3nc2c1 [Example 71] | 249 °C | 249° ° C.
O=C1CC(=O)N(c2ccccc2)C(=O)N1 [Example 160] | 262 °C | 262° ° C.
CC1(C)Oc2ccc(C#N)cc2[C@H](n2ccccc2=O)[C@H]1O [Example 45] | 245 to 246 °C | 245-246° ° C.
CC(=O)N[C@@H]1CCC[C@H](NC(C)=O)C1 [Example 166] | 262 to 264 °C | 262-264° ° C.
Nc1ccc(C(=O)c2ccc(N)cc2)cc1 [Example 33] | 244 to 245 °C | 244-245° ° C.
c1ccc(-c2nc(-c3ccccc3)c(-c3ccccc3)nc2-c2ccccc2)cc1 [Example 69] | 248 °C | 248° ° C.
CCOc1cccc(C#N)c1 [Example 5] | 241 to 244 °C | 241-244° ° C.
Nc1cccc2sc3ccccc3c(=O)c12 [Example 75] | 249 to 250 °C | 249-250° ° C.
c1ccc2c(c1)-c1ccccc1C2C1c2ccccc2-c2ccccc21 [Example 56] | 246 °C | 246° ° C.
Cc1cc(C)c(C=O)cc1C [Example 28] | 243 °C | 243° ° C.
C1=CCC2=C(C1)CC1=C(C2)CC2=C(CC=CC2)C1 [Example 4] | 241 to 242 °C | 241-242° ° C.
Cn1ccc(N)nc1=O [Example 145] | 260 to 265 °C | 260-265° ° C.
Nc1cc(N)n(N)c(=S)n1 [Example 197] | 265 °C | 265° ° C.
O=c1ccc2c(O)cccc2o1 [Example 31] | 244 to 247 °C | 244-247° ° C.
c1ccc(-c2nc3ncncc3[nH]2)cc1 [Example 150] | 261 to 262 °C | 261-262° ° C.
CC(=O)N[C@H]1[C@@H](OCc2ccccc2)O[C@@H]2CO[C@H](c3ccccc3)O[C@H]2[C@@H]1O [Example 176] | 263 to 264 °C | 263-264° ° C.
O=C1N=C(NO)c2ccccc21 [Example 182] | 264 to 266 °C | 264-266° ° C.
O=C1NC(=O)C2(CCC(O)C2)c2ccncc21 (centres unmarked) [Example 8] | 240 to 243 °C | 240-243° ° C.
c1ccc2c(c1)[nH]c1ccc3cnccc3c12 [Example 99] | 254 to 255 °C | 254-255° ° C.
O=C1C(=O)c2cc3ccccc3cc2-c2ccccc21 [Example 143] | 260 to 262 °C | 260-262° ° C.
NC1=NCCC(CC(N)C(=O)O)N1 (centres unmarked) [Example 124] | 258 to 259 °C | 258-259° ° C.
